Peptide text beside a SMILES is read from it. * marks the point of attachment. Palmitoyl = CCCCCCCCCCCCCCCC(=O)*
Key:
HepG2 cells = test: Cytotoxicity assay (MTT); type: cell-based, human
Experimental: HepG2 cells were seeded in a 96-well plate at a density of 10,000 cells/well in growth medium (DMEM high-glucose, 10% fetal bovine serum). The next day, growth medium was changed and the peptide of formula (I) was added once with ascending dose for 24 h, 48 or 72 h or for 48 h with repeating once in 24 h. Similarly, the peptide of formula (II) was added once with ascending dose for 24 h or 48 h or for 48 h with repeating once in 24 h. Cells were incubated for 4 h with 5 mg/L MTT and 100 μL of DMSO was added in the well. Absorbance was recorded at 570 and 660 nm using the microplate spectrophotometer system (Varioscan flash). Cell viability was calculated by subtracting the 570 nm absorbance to the background measured at 660 nm.

[1] = test system: primary mouse hepatocytes; test: Steatotic primary mouse hepatocytes, intracellular triglyceride content; type: cell-based; settings: 1 μM, 24 h
Experimental: Primary mouse hepatocytes were isolated as described in Example 3 from mice fed western-diet for 11-weeks (Envigo #TD.88137 containing 0.2% cholesterol, 42% kcal from fat, 34% sucrose by weight). Primary mouse hepatocytes were seeded in a 12-well plate at a density of 600,000 cells/well in growth medium and treated for 24 h with apoA-I (10 μg/mL), peptide of formula (I) (1 μM) or peptide of formula (II) (1 μM).
For measurement of intracellular triglyceride content, cells were washed with PBS and scraped in 5% NP-40 lysis buffer and heated for 10 min at 85° C. Triglycerides were then quantified using triglyceride commercial kit (Biolabo #87319). Values were normalized to protein concentration in cell lysates.

human F1Fo-ATPase [2] = biological target: T1, human F1Fo-ATPase (Homo sapiens, UniProt P06576); test: Surface plasmon resonance (SPR) binding to purified human F1Fo-ATPase; settings: SPR single-cycle kinetics; His-tag / biotin variant of peptide immobilized, F1Fo-ATPase as analyte; read-out: KD (affinity between F1Fo-ATPase and immobilized peptide)
T1 construct: Human F1Fo-ATPase was purified from HepG2 cells by immunocapture; endogenous in cells; host or cells: HepG2 cells; complex isolated by immunocapture with anti-ATP synthase antibody 12F4AD8AF8 (#ab109867, Abcam)
Experimental: Surface plasmon resonance (SPR) assays. Binding studies based on SPR technology were performed on a BIAcore T200 optical biosensor instrument (GE Healthcare®, Uppsala, Sweden). The peptide of formula (I) with C-terminal 6×His-tag (Formula (I)-His-tag: CH3CO-[SEQ ID NO: 1]-HHHHHH) and the peptide of formula (II) with C-terminal biotin (Formula (II)-Biotin: CH3CO-[SEQ ID NO: 1]-K-[palmitoyl]-AEEAc-K-[biotinyl]-NH2) were custom-synthesized by BACHEM AG (Bubendorf, Switzerland) with >90% purity in trifluoroacetate salt. Human F1Fo-ATPase was purified from HepG2 cells by immunocapture using mouse monoclonal anti-ATP synthase antibody (12F4AD8AF8, #ab109867, Abcam) according to manufacturer's instructions.
Immobilization of the peptide of formula (I)-6His-tag was performed on a nitrilotriacetic acid (NTA) sensorchip in HBS-P+ buffer (10 mM Hepes pH 7.4, 150 mM NaCl, and 0.05% surfactant P20) (GE Healthcare). To saturate the NTA surface with Ni2^+, flow cells (Fc) were loaded with 0.5 mM NiCl2 solution. The channel Fc1 was left empty and used as a reference surface for nonspecific binding measurements. Formula (I)-6×His was injected in the channel Fc2 at a flow-rate of 5 μL/min and stabilized by amine coupling (Laboratory guideline 29-0057-17 AB). The total amount of immobilized Formula (I)-His-tag was 300-350 resonance units (RU): final concentration 25 μg/mL. […]

human F1Fo-ATPase [3] = biological target: T1, human F1Fo-ATPase; test: F1-ATPase activity assay (NADH-coupled, purified enzyme); type: biochemical; settings: 1 μM
Source text: The mature human IF1 protein (SEQ ID NO: 5) was chemically synthesized by GenScript (Piscataway, N.J., USA) at >80% purity. The peptides derived from the mature human IF1 sequence (IF1-1-60, IF1-10-56, IF1-10-47) were produced by BachemAG (Bubendorf, Switzerland) with >90% purity.
Human F1Fo-ATPase was purified from HepG2 cells by immunocapture using mouse monoclonal anti-ATP synthase antibody (12F4AD8AF8, #ab109867, Abcam) according to manufacturer's instructions.
Measurement of F1-ATPase activity was assayed as previously described. Briefly, 10 μg of F1Fo-ATPase was prepared into 50 μL of activity assay buffer (10 mM HEPES, 150 mM NaCl, 5 mM KCl, 5 mM MgCl2, 0.5 mM phosphoenolpyruvate, 250 μM NADH, 100 μM ATP, 20 U lactate dehydrogenase, 120 U pyruvate kinase). The mixture was incubated at 37° C. for 30 min. Then the F1-ATPase activity was measured in a 96-well microplate by adding 5 μL of the mixture (1 μg of F1Fo-ATPase per point) per well to 200 μL of activity assay buffer at 37° C., and by adding 5 μL of buffer with or without peptide (1 μM each). The reduction in the absorbance of NADH was measured at 340 nm for 5 min with a Varioskan™ Flash Multimode Reader (Thermo Fisher Scientific). A slope was calculated for each well and the results expressed as a percentage of the control slope.

Row | Compound | cell viability (MTT) (HepG2 cells; 0.1 to 25 μM, single dose 24 or 48 h, or multiple doses at 24 and 48 h) | intracellular accumulation of triglycerides vs PBS control [1] | Kd (human F1Fo-ATPase [2]) | stimulation of F1-ATPase activity (human F1Fo-ATPase [3]) | cell viability (MTT) (HepG2 cells; 0.1 to 50 μM, single dose 24, 48 or 72 h, or multiple doses at 24 and 48 h)
1 | CCCCCCCCCCCCCCCC(=O)NCCCC[C@H](NC(=O)[C@H](CCC(=O)O)NC(=O)[C@H](CCCNC(=N)N)NC(=O)[C@H](CO)NC(=O)[C@H](CCC(N)=O)NC(=O)[C@H](C)NC(=O)[C@H](CCCNC(=N)N)NC(=O)[C@H](Cc1ccccc1)NC(=O)[C@H](Cc1ccc(O)cc1)NC(=O)[C@H](CCCNC(=N)N)NC(=O)[C@H](CCC(=O)O)NC(=O)[C@H](CCC(=O)O)NC(=O)[C@H](CCC(=O)O)NC(=O)[C@H](C)NC(=O)[C@H](CCC(N)=O)NC(=O)[C@H](CCC(=O)O)NC(=O)[C@H](CCCNC(=N)N)NC(=O)[C@H](CCCCN)NC(=O)CNC(=O)[C@H](Cc1ccccc1)NC(=O)[C@H](C)NC(=O)CNC(=O)CNC(=O)[C@H](C)NC(=O)[C@H](CCC(=O)O)NC(=O)[C@H](CCCNC(=N)N)NC(=O)[C@@H](NC(=O)[C@H](CO)NC(=O)CNC(=O)[C@H](C)NC(=O)CNC(=O)[C@H](CCCNC(=N)N)NC(C)=O)[C@@H](C)CC)C(N)=O [peptide of formula (II), CH3CO-[SEQ ID NO: 1]-K-[palmitoyl]-NH2] (Ac-RGAGSIREAGGAFGKREQAEEERYFRAQSREK(Palmitoyl)-NH2) | no impact | significantly reduced | 4.45 nM | 43% | 
2 | Ac-RGAGSIREAGGAFGKREQAEEERYFRAQSRE-NH2 [peptide of formula (I), CH3CO-[SEQ ID NO: 1]-NH2] |  | significantly reduced | 19 nM | 36% | no impact
